The source of these data is patent publication US11499978B2, “Method for measuring quality of therapeutic cell through real-time glutathione measurement” (CELL2IN, INC., priority 2017, dated 2022).

Assay [1] relates to hUC-MSCs. As to the kind of experiment: Oxidative stress resistance capacity (ORC) analysis in hUC-MSCs with RSL3. It is filed as cell-based, human. Particulars: hUC-MSCs subcultured three times with AA2G 250 μg/mL; compared with naive cell group (NC). The procedure: GRC refers to a value obtained by real-time monitoring of FR after living cells are treated with an oxidizing agent, as calculated by dividing a value obtained by subtracting AUC of a group treated with 0.1-100 mM N-ethylmaleimide (NEM) from FR AUC of an oxidizing agent (diamide, H2O2, etc.)-treated group by a value obtained by subtracting the AUC of NEM-treated group from AUC of the untreated control, and multiplying the resulting value by 100. The FR of the NEM-treated group is a value for increasing the sensitivity of a GRC value by treating it as the blank value of the FR of the cells of interest. […] To remove the MitoFreSH-Tracer from the medium before measurement, the medium was exchanged with fresh 10 mM HEPES-containing HBSS(Hanks' Balanced Salt Solution), and a fluorescence image was obtained using a confocal imaging system, Operetta. By comparing GSH levels quantified from control cells not treated with RSL3 or control cells before treated with RSL3, the distribution of GSH expression-changed cells was calculated. Based on the point where the distribution histogram is divided into two peaks, the cells were divided into GSH^High cells (right peak) and GSH^Low cells (left peak), and then a ratio of corresponding cells was expressed as a percentage (%). […]

In assay [2] the test system is hUC-MSCs. As to the kind of experiment: SDF1α- and PDGF-AA-induced migration capacity of hUC-MSCs. It is filed as cell-based, human. Particulars: 125 or 250 μg/mL AA2G for three days, n=3. Here is the method: The inventors observed an effect of the material on stem cells by treating each stem cells with a material for enhancing a glutathione evaluation parameter. When hUC-MSCs were subcultured in a L-AA2G-containing medium, CFU-F, migration capacity, and an anti-inflammatory effect were observed. A CFU-F assay (n=3) was performed by treating hUC-MSCs with 125 or 250 μg/mL of AA2G for three days. As shown in FIGS. 16A and 16B, it was confirmed that, when AA2G was treated, CFU-F increased. In addition, as hUC-MSCs were treated with 125 or 250 μg/mL of AA2G for three days, PDGF-AA-induced migration capacity (n=3) was analyzed. As shown in FIGS. 17A and 17B, it was confirmed that the migration capacity was increased by AA2G treatment. In addition, the reduction in T cell proliferation, the reduction in T cell differentiation, and the promotion of Treg cell differentiation were observed by treating hUC-MSCs with 125 or 250 μg/mL of AA2G for three days. […] Meanwhile, hUC-MSCs were cultured with a glutathione precursor such as γ-glutamyl cysteine (GGC, 0.1, 0.25, and 0.5 mM). […] In addition, SDF1α and PDGF-AA-induced migration capacities (n=3) were analyzed for hUC-MSCs without treatment with GGC, and SDF1α and PDGF-AA-induced migration abilities (n=3) were analyzed by treating hUC-MSCs with the increasing concentrations of GGC. […]

With `O=C1O[C@H]([C@@H](O)CO)C(O)=C1O[C@H]1O[C@H](CO)[C@@H](O)[C@H](O)[C@H]1O` [AA2G, ascorbic acid 2-glucoside], the “FreSH-Tracer-based ORC (GSH^High cells)” value in the assay on hUC-MSCs [1] is “higher”. Also, the PDGF-AA-induced migration capacity entry with hUC-MSCs [2] is “increased”.
